The assay relates to CEM cells HIV-1 protection, formazan growth assay. Description: NCI AIDS Antiviral Assay. Conditions: for IC50: measured here: growth of uninfected CEM cells. The gist of the method:
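Five concentrations of each compound were applied to infected and uninfected human CEM cells. Protection from HIV-1 was judged from growth measured with a soluble formazan assay.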

EC50, IC50 and outcome data for 67 compounds are collected here from PubChem BioAssay AID179 (DTP/NCI, 2004).

Several values for one entry are separate records, joined by “and”; a condition that tells them apart may be missing. Equal values may be shown once. Activity calls are given as the source filed them.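 Rule for the calls: active = compounds giving half or more protection of infected cells from virus-caused growth loss, again on retest; inactive = the rest.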

For the compound `COC(=N)CCNC(=O)C(O)C(O)C(=O)NCCC(=N)OC` (stereo not given), the EC50 (usually the concentration giving half of the maximal effect) is more than 646 µM and the half-inhibitory concentration (IC50) (in general, the concentration at which inhibition is half-maximal) was more than 646 µM.

With `CC(=O)[O-].O=C([N-]/N=C\c1ccsc1)c1ccncc1.[Ni+2].[OH3+].c1cnc2c(c1)ccc1cccnc12`, the EC50 was more than 200 µM and the concentration for half-maximal inhibition (IC50) turned out to be 47.9 µM.

Regarding `CC(=O)N(CC(=O)Nc1ccc(S(N)(=O)=O)cc1)C(C)C`, the EC50 was more than 200 µM and the IC50 is more than 200 µM.

For `CCOC1OC(c2ccccc2)=NS(=O)(=O)C1(C)C` (stereo not given), the EC50 is more than 891 µM and the IC50 came to 513 µM.

As for `CC(=O)Nc1nc(C#N)[nH]c1C#N`, the EC50 is more than 200 µM and the IC50 is more than 200 µM.

On to `C(=C\c1cc(CCc2nc3ccccc3[nH]2)[nH]n1)/c1ccccc1`, for which the EC50 was more than 83.2 µM and the IC50 is more than 83.2 µM.

On to `CCN1CCC(O)(/C=C/c2ccccc2)C(C(=O)/C=C/c2ccccc2)C1` (stereo not given), for which the result was inactive.

On to `CO/C=C1\CCC2c3c(c4ccccc4n3C)CC1N2Cc1ccccc1` (stereo not given), for which the EC50 is more than 14.5 µM and the IC50 is 8.13 µM.

Turning to `COc1ccc2c(c1)CCc1[nH]c3ccccc3c1CCCC2`, the EC50 is more than 61.7 µM and the IC50 turned out to be 57.5 µM.

On to `CCSc1nc(-c2ccc(OC)cc2)c(C#N)c(=O)n1C1OCC(OC(C)=O)C(OC(C)=O)C1OC(C)=O` (stereo not given), for which the EC50 is more than 200 µM and the IC50 was more than 200 µM.

`Cc1oc2c(c1C)S(=O)(=O)C(C#N)C(c1ccccc1)N2` (stereo not given): the EC50 is more than 200 µM and the concentration for half-maximal inhibition (IC50) came out at 126 µM.

Consider `Cc1ccc(S(=O)(=O)C2CC3CC2C2COCC32)cc1` (stereo not given), for which the EC50 is more than 75.9 µM and the IC50 is more than 75.9 µM.

On to `CCC1CC2CN3CCc4c([nH]c5ccc(OC)cc45)C(C(=O)OC)(C2)C13` (stereo not given), for which the result was inactive.

For the compound `COc1cccc(N2C(=O)CSC2c2c[nH]c3ccccc23)c1` (stereo not given), the EC50 is more than 22.4 µM and the IC50 was more than 22.4 µM.

With `CC(=O)Oc1ccc(C2(c3ccc(OC(C)=O)cc3)C(=O)Nc3ccccc32)cc1`, the EC50 was more than 200 µM; the half-maximal inhibitory concentration (IC50) is 35.5 µM and 36.3 µM.

Regarding `CCOC(=O)NC(=O)c1cn(CCCCCCCCCCC(=O)N2CCN(CCn3cc(C(=O)NC(=O)OCC)c(=O)[nH]c3=O)CC2)c(=O)[nH]c1=O`, the outcome was inactive.

For `CC(=O)Nc1ccc(C(=O)NN2C(=O)C(Cl)C2c2cccc([N+](=O)[O-])c2)cc1` (stereo not given), the EC50 was more than 200 µM and the IC50 stood at 85.1 µM.

For `COC(=O)[C@H](Cc1cn(C(c2ccccc2)(c2ccccc2)c2ccccc2)cn1)NCc1cc(N(C)C)cc(CN[C@@H](Cc2cn(C(c3ccccc3)(c3ccccc3)c3ccccc3)cn2)C(=O)OC)n1`, the EC50 is more than 100 µM and the IC50 was found to be 5.89 µM.

For `Cc1c(N2C(=O)/C(=C/c3ccc(N(CCC#N)CCC#N)cc3)N=C2c2ccccc2)c(=O)n(-c2ccccc2)n1C`, the EC50 was more than 200 µM and the IC50 was 186 µM.

Turning to `Cc1ccnc(NS(=O)(=O)c2ccc(N=Nc3c(N)n(C)c(=O)n(C)c3=O)cc2)n1`, the outcome was inactive.

On to `C/C(=N\Nc1ccc2ccccc2n1)c1ccccn1`, for which the EC50 is more than 0.2 µM and the half-maximal inhibitory concentration (IC50) is 0.11 µM.

For `N#CC(C#N)=C(N)/C(C#N)=C\c1ccnc2ccccc12`, the EC50 was more than 26.3 µM and the IC50 was found to be 4.07 µM.

Take `CCCCCCCCCCCCCC(=O)OCC1OC(n2cc(C)c(=O)[nH]c2=O)CC1O` (stereo not given): the EC50 is more than 200 µM and the IC50 stood at 11.7 µM.

As for `O=C(O)C1=Cc2cccc3cccc(c23)C1=O`, the result was inactive.

Take `Nc1ccc2c(c1)nc1n2C(c2c(F)cccc2F)SC1` (stereo not given): the EC50 is more than 200 µM and the IC50 worked out at 135 µM.

Turning to `CCOC(=O)/C(C#N)=C/N(CC)/N=C/c1ccccc1`, the EC50 is more than 200 µM and the IC50 is more than 200 µM.

As to `Cn1nc2ccc3nccc(NCCNCCCl)c3c2n1`, the EC50 is more than 1.17 µM and the 50% inhibitory concentration (IC50) was more than 1.17 µM.

`COCOc1c(C(O[Si](C)(C)C(C)(C)C)c2cnc(Sc3ccccc3)n2C)ccc(OC)c1OC` (stereo not given): the EC50 is more than 200 µM and the IC50 amounted to 4.27 µM.

As for `COc1ccc(NC(=S)NN=C(C)c2cccc(C(C)=NNC(=S)Nc3ccc(OC)cc3)n2)cc1`, the EC50 is more than 200 µM and the concentration for half-maximal inhibition (IC50) was 55 µM.

On to `COC(=O)c1ccccc1C#CCCCOS(C)(=O)=O`, for which the EC50 is more than 200 µM and the half-maximal inhibitory concentration (IC50) was more than 200 µM.

As for `CCC1(O)C(=O)c2ccccc2N(c2ccccc2)C1=O` (stereo not given), the EC50 is more than 200 µM and the concentration for half-maximal inhibition (IC50) is more than 200 µM.

`CCCc1cc(=O)oc2c3c(c4c(c12)OC(C)(C)[C@@H](O)[C@H]4O)O[C@@H](C)[C@H](C)[C@@H]3O`: the EC50 is more than 200 µM and the IC50 is 135 µM.

Consider `OCC1OC(c2scc3c(=S)nc[nH]c23)C(O)C1O` (stereo not given), for which the EC50 is more than 200 µM and the concentration for half-maximal inhibition (IC50) amounted to 12.6 µM.

`C=CCOc1ccc(C2(O)c3ccccc3C3=NCCCN32)cc1` (stereo not given): the EC50 was more than 200 µM and the half-inhibitory concentration (IC50) is 148 µM.

With `CN(C)CCN1C(=O)CN=C(c2ccccc2Cl)c2cc(Cl)ccc21`, the EC50 was more than 200 µM and the IC50 turned out to be 117 µM.

Turning to `COC(=O)C1=C(c2ccc3c(c2)OCO3)OC(c2ccc3c(c2)OCO3)C1` (stereo not given), the result was inactive.

Take `COC(=O)c1cc(Cc2cc(C)c(OC)c(C(=O)OC)c2)cc(C)c1OC`: the EC50 is more than 200 µM and the 50% inhibitory concentration (IC50) was 14.5 µM.

Regarding `O=C(CSC(=S)N1CCCCC1)Nc1nc2c(s1)CCCC2`, the EC50 was more than 38 µM and the 50% inhibitory concentration (IC50) is more than 38 µM.

As for `Cc1ccc(S(=O)OC23CC4CC(CC(C4)C2)C3)cc1` (stereo not given), the result was inactive.

For the compound `CC(=O)c1c(O)ccc2c1CC(CC=O)O2` (stereo not given), the EC50 was more than 589 µM and the half-maximal inhibitory concentration (IC50) came to 22.9 µM.

For `CN1CCC2(CC1)C(=O)N(Cc1ccccc1)C(=O)C2c1ccccc1` (stereo not given), the EC50 was more than 372 µM and the IC50 came to 214 µM.

With `COC(=O)[C@]1(C)CCC[C@]2(C)c3ccc(C(C)C)cc3C(=O)[C@@H](Br)[C@@H]12`, the EC50 was more than 200 µM and the IC50 turned out to be 8.51 µM.

`O=C(O)c1cc2cccc(O)c2cc1O`: the EC50 is more than 200 µM and the half-maximal inhibitory concentration (IC50) is more than 200 µM.

For the compound `N#Cc1c2ccc([N+](=O)[O-])cc2c(=O)n2c1sc1ccccc12`, the EC50 was more than 200 µM and the concentration for half-maximal inhibition (IC50) was 10.7 µM.

On to `CN(C)CCn1c2c3ccccc3ccc2c2oc(=O)c3ccccc3c21`, for which the EC50 was more than 18.2 µM and the IC50 amounted to 8.51 µM.

As for `O=C1NC2(CCCC2)C(=O)N2CCCC12` (stereo not given), the EC50 was more than 129 µM and the IC50 is more than 129 µM.

Consider `Cc1cc(C)c(C2=NOC(c3ccccc3)(c3cc(=O)n(-c4ccccc4)s3)O2)c(C)c1` (stereo not given), for which the concentration giving a half-maximal response (EC50) was 8.51 µM and the IC50 is 38 µM.

Consider `COc1ccc(Cl)cc1C(=O)c1cc(Cl)cc(S(=O)(=O)OC)c1OC`, for which the EC50 was more than 24.5 µM and the IC50 was more than 24.5 µM.

Take `COc1c(OC(C)=O)ccc(/C=C2\N=C(C)OC2=O)c1[N+](=O)[O-]`: the outcome was inactive.

Regarding `COc1ccc(-c2cc(-c3ccccc3)[nH]c(=S)c2C#N)cc1`, the EC50 was more than 200 µM and the half-maximal inhibitory concentration (IC50) came to 67.6 µM.

`CCOc1c(OC)cc(CNNc2nccs2)cc1OC`: the EC50 was more than 200 µM and the 50% inhibitory concentration (IC50) was 89.1 µM.

With `COC(=O)c1ccc(CSc2ccccc2)cc1`, the EC50 was more than 28.2 µM and the concentration for half-maximal inhibition (IC50) was more than 28.2 µM.

`CC(C)(C)c1cc(CCCCCCCC2(CCCCCCCc3cc(C(C)(C)C)cc(C(C)(C)C)c3)OC(COCCOCCCCCC#N)C(COCCOCCCCCC#N)O2)cc(C(C)(C)C)c1` (stereo not given): the outcome was inactive.

Turning to `O=C(NCCN(CCNC(=O)c1cccc(=O)n1O)CCN(CCNC(=O)c1cccc(=O)n1O)CCNC(=O)c1cccc(=O)n1O)c1cccc(=O)n1O`, the EC50 was more than 200 µM and the IC50 is more than 200 µM.

Turning to `Cn1c2c(c3ccccc31)CCN1OCC=C[C@@H](C(=O)O)[C@@H]21`, the EC50 is more than 200 µM and the half-maximal inhibitory concentration (IC50) was more than 200 µM.

As to `O=C(NCCCCN1CC2CCCC2C1)C(C1CCCCC1)C1CCCCC1` (stereo not given), the EC50 was more than 200 µM and the concentration for half-maximal inhibition (IC50) came to 10.7 µM.

Consider `O=C(/C=C/c1ccc(O)c(F)c1)CC(=O)/C=C/c1ccc(O)c(F)c1`, for which the EC50 is more than 200 µM and the IC50 was 12.6 µM.

In the case of `Cc1cc(=O)oc2c(CNC(Cc3ccccc3)C(=O)O)c(O)ccc12` (stereo not given), the EC50 was more than 200 µM and the IC50 was more than 200 µM.

As to `Cc1nc2ccccc2c(=O)n1NC(=O)c1ccccc1O`, the EC50 was more than 200 µM and the half-inhibitory concentration (IC50) is 38 µM.

`CC1(C)O[C@@H]2[C@@H](COC(=O)c3ccccc3)C[C@@H](C#N)[C@@H]2O1`: the EC50 was more than 200 µM and the IC50 is more than 200 µM.

Regarding `COC(=O)c1ccc(COC(=O)c2cc(C(=CCC[C@H]3CC[C@@]4(C)[C@@H](CC[C@@H]5[C@@H]4CC[C@]4(C)[C@@H](C(C)CCCC(C)C)CC[C@@H]54)C3)c3cc(Cl)c(OCc4ccc(C(=O)OC)cc4)c(C(=O)OCc4ccc(C(=O)OC)cc4)c3)cc(Cl)c2OCc2ccc(C(=O)OC)cc2)cc1` (stereo not given in full), the EC50 is more than 200 µM and the IC50 was more than 200 µM.

Turning to `CC(C)CCCC(C)[C@H]1CCC2C3CCC4C[C@@H](CCC=C(c5cc(Cl)c(OCc6ccc([N+](=O)[O-])cc6)c(C(=O)O)c5)c5cc(Cl)c(OCc6ccc([N+](=O)[O-])cc6)c(C(=O)O)c5)CC[C@]4(C)C3CC[C@@]21C` (stereo not given in full), the EC50 was 115 µM and the IC50 was more than 200 µM.

Consider `COc1ccc(N2C(=O)/C(=C/c3ccc(N(CCC#N)CCC#N)cc3C)N=C2/C=C\c2ccccc2)cc1`, for which the EC50 was more than 14.1 µM and the IC50 is more than 14.1 µM.

Take `CCC(CON(C)c1ccccc1)(SC)SC`: the EC50 is more than 200 µM and the half-inhibitory concentration (IC50) stood at 105 µM.

For the compound `NC(N)=NS(=O)(=O)c1ccc(NNC(=O)c2cccc3c(=O)c4ccccc4[nH]c23)cc1`, the EC50 was more than 200 µM and the IC50 turned out to be 33.9 µM.

Turning to `COc1ccc(-c2cc(-c3ccco3)c(C#N)c(=O)n2C2OC(COC(C)=O)C(OC(C)=O)C(OC(C)=O)C2OC(C)=O)cc1` (stereo not given), the EC50 was more than 11.5 µM and the 50% inhibitory concentration (IC50) is more than 11.5 µM.

In the case of `C#CCNC(=O)NCCCCC(NC(=O)OCc1ccccc1)C(=O)OCc1ccccc1` (stereo not given), the EC50 is more than 151 µM and the 50% inhibitory concentration (IC50) stood at 97.7 µM.
